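GI50: concentration for 50% inhibition of growth. TGI denotes the concentration required for complete inhibition of growth.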
Key:
Assay in all cases: NCI-60 cell line screen, 384-well format
[1] = tested on: 786-0 renal
[2] = tested on: A498 renal
[3] = tested on: A549 NSCLC
[4] = tested on: ACHN renal
[5] = tested on: BT-549 breast
[6] = tested on: CAKI-1 renal
[7] = tested on: CCRF-CEM leukemia
[8] = tested on: COLO 205 colon
[9] = tested on: DU-145 prostate
[10] = tested on: EKVX NSCLC
[11] = tested on: HCC-2998 colon
[12] = tested on: HCT-15 colon
[13] = tested on: HL-60(TB) leukemia
[14] = tested on: HOP-62 NSCLC
[15] = tested on: HOP-92 NSCLC
[16] = tested on: HS 578T breast
[17] = tested on: HT29 colon
[18] = tested on: IGROV1 ovarian
[19] = tested on: KM12 colon
[20] = tested on: M14 melanoma
[21] = tested on: MALME-3M melanoma
[22] = tested on: MCF7 breast
[23] = tested on: MDA-MB-231 breast
[24] = tested on: MDA-MB-435 melanoma
[25] = tested on: MDA-MB-468 breast
[26] = tested on: MOLT-4 leukemia
[27] = tested on: NCI-H226 lung
[28] = tested on: NCI-H23 lung
[29] = tested on: NCI-H322M lung
[30] = tested on: NCI-H460 NSCLC
[31] = tested on: NCI-H522 lung
[32] = tested on: NCI/ADR-RES ovarian
[33] = tested on: OVCAR-3 ovarian
[34] = tested on: OVCAR-4 ovarian
[35] = tested on: OVCAR-5 ovarian
[36] = tested on: OVCAR-8 ovarian
[37] = tested on: PC-3 prostate
[38] = tested on: RPMI-8226 leukemia
[39] = tested on: RXF 393 renal
[40] = tested on: SF-268 CNS
[41] = tested on: SF-295 CNS
[42] = tested on: SF-539 CNS
[43] = tested on: SK-MEL-2 melanoma
[44] = tested on: SK-MEL-28 melanoma
[45] = tested on: SK-MEL-5 melanoma
[46] = tested on: SK-OV-3 ovarian
[47] = tested on: SN12C renal
[48] = tested on: SNB-19 CNS
[49] = tested on: SNB-75 CNS
[50] = tested on: SR leukemia
[51] = tested on: SW-620 colon
[52] = tested on: T-47D breast
[53] = tested on: TK-10 renal
[54] = tested on: U251 glioblastoma
[55] = tested on: UACC-257 melanoma
[56] = tested on: UACC-62 melanoma

## CN(C)CCN1C(=O)c2cccc3cc(N)cc(c23)C1=O
[1]
  GI50: 3.13 µM
  TGI: 13.5 µM
[2]
  GI50: 1.26 µM
  TGI: 4.62 µM
[3]
  GI50: 1.17 µM
  TGI: 3.64 µM
[4]
  GI50: 2.31 µM
  TGI: 4.44 µM
[5]
  GI50: 2.87 µM
  TGI: 7.03 µM
[6]
  GI50: 2.2 µM
  TGI: 6.36 µM
[7]
  GI50: 1 µM
  TGI: 2.19 µM
[8]
  GI50: 1.98 µM
  TGI: 5.32 µM
[9]
  GI50: 2.28 µM
  TGI: 14.2 µM
[10]
  GI50: 4.87 µM
  TGI: 19.6 µM
[11]
  GI50: 2.01 µM
  TGI: 5.47 µM
[12]
  GI50: 2.56 µM
  TGI: 8.07 µM
[13]
  GI50: 1.09 µM
  TGI: 2.35 µM
[14]
  GI50: 1.5 µM
  TGI: 3.65 µM
[15]
  GI50: 2.49 µM
  TGI: 6.89 µM
[16]
  GI50: 1.42 µM
  TGI: 5.1 µM
[17]
  GI50: 2.5 µM
  TGI: 6.43 µM
[18]
  GI50: 3.07 µM
  TGI: 16.5 µM
[19]
  GI50: 2.85 µM
  TGI: 14.8 µM
[20]
  GI50: 2.72 µM
  TGI: 7.79 µM
[21]
  GI50: 2.2 µM
  TGI: 4.92 µM
[22]
  GI50: 2.92 µM
  TGI: 16.3 µM
[23]
  GI50: 2.03 µM
  TGI: 5.55 µM
[24]
  GI50: 3.44 µM
  TGI: 12 µM
[25]
  GI50: 1.88 µM
  TGI: 4.73 µM
[26]
  GI50: 0.242 µM
  TGI: 0.572 µM
[27]
  GI50: 2.02 µM
  TGI: 4.05 µM
[28]
  GI50: 2.45 µM
  TGI: 5.59 µM
[29]
  GI50: 4.51 µM
  TGI: 18.2 µM
[30]
  GI50: 0.791 µM
  TGI: 2.27 µM
[31]
  GI50: 1.34 µM
  TGI: 3.03 µM
[32]
  GI50: 2.8 µM
  TGI: 7.79 µM
[33]
  GI50: 4.01 µM
  TGI: 14 µM
[34]
  GI50: 2.62 µM
  TGI: 5.94 µM
[35]
  GI50: 2.46 µM
  TGI: 6.66 µM
[36]
  GI50: 1.8 µM
  TGI: 3.63 µM
[37]
  GI50: 3.49 µM
  TGI: 11.3 µM
[38]
  GI50: 1.4 µM
  TGI: 2.82 µM
[39]
  GI50: 2.47 µM
  TGI: 6.06 µM
[40]
  GI50: 3.06 µM
  TGI: 8.24 µM
[41]
  GI50: 2.77 µM
  TGI: 12.1 µM
[42]
  GI50: 2.22 µM
  TGI: 6.64 µM
[43]
  GI50: 4.1 µM
  TGI: 6.11 µM
[44]
  GI50: 4.01 µM
  TGI: 8.86 µM
[45]
  GI50: 1.96 µM
  TGI: 3.53 µM
[46]
  GI50: 2.12 µM
  TGI: 6.21 µM
[47]
  GI50: 2.53 µM
  TGI: 11.4 µM
[48]
  GI50: 2.16 µM
  TGI: 6.75 µM
[49]
  GI50: 1.35 µM
  TGI: 4.62 µM
[50]
  GI50: 1.38 µM
  TGI: 2.69 µM
[51]
  GI50: 3.12 µM
  TGI: 12.1 µM
[52]
  GI50: 2.73 µM
  TGI: 6.62 µM
[53]
  GI50: 2.34 µM
  TGI: 7.61 µM
[54]
  GI50: 2.38 µM
  TGI: 5.62 µM
[55]
  GI50: 2.68 µM
  TGI: 6.03 µM
[56]
  GI50: 1.85 µM
  TGI: 3.61 µM

— PubChem BioAssay (NCI)
